Data: patent US20100324124A1, “Compositions and methods relating to DNA-based particles” (Massachusetts Institute of Technology, priority 2009, published 2010)

Tested on: B16F10 melanoma tumors
Experiment: In vivo treatment of established B16F10 melanoma tumors, single intratumoral injection
Conditions: 100 μg DOX, C57B1/6 mice
Protocol: FIG. 7 illustrates in vivo tumor regression mediated by doxobucin-loaded nanoparticles. 5×10^6 Gaussia-luciferase-expressing B16F10 melanoma cells were subcutaneously injected into left flank of C57B1/6 mice. Tumors were allowed to establish and grow to ˜0.5 cm in diameter, and mice were divided randomly into groups of 8 per condition: group 1, no treatment (PBS); group 2, treated with free doxorubicin (100 μg DOX); group 3, treated with doxorubicin-imbedded liposome (100 μg DOX); and group 4, treated with doxorubicin-imbedded nucleic acid nanoparticle (100 μg DOX). Treatments were administered by intratumoral injection in 250 μl volumes. Tumors were measured every day with calipers in two dimensions. Tumor growth curves are plotted as the mean tumor area±standard deviation. Shown at bottom left is bioluminescence imaging of a mouse with an untreated tumor (left) and a mouse that received an injection of doxorubicin-imbedded nucleic acid nanoparticles (right). Animals were sacrificed after the last measurement and the tumors were excised and fixed for histology section. […]

**Q.** `COc1cccc2c1C(=O)c1c(O)c3c(c(O)c1C2=O)C[C@@](O)(C(=O)CO)C[C@@H]3O[C@H]1C[C@H](N)[C@H](O)[C@H](C)O1` [free doxorubicin, Doxorubicin] was tested. Which “effect on tumor growth relative to saline-injected control animals” value did it give?
**A.** no effect on tumor growth
